This passage reports TGI results from PubChem BioAssay (NCI).

The structures appear in SMILES notation.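 Dose response: 5 concentrations. Exposure: 48 h. Format: 96-well plates. Endpoint: linear interpolation; highest concentration if not reached. TGI denotes the concentration required for complete inhibition of growth.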

The first assay concerns SNB-75 CNS. Briefly: NCI tumour cell line growth inhibition, 48 h.
Compound `Nn1c(-c2ccccc2)nn(C(=O)c2ccccc2)c1=O` returned a TGI of more than 100 µM.
Still for that read-out and setting: next, `CN1CCc2cc(N)cc3c2C1Cc1ccc(O)c(O)c1-3` (stereo not given): more than 100 µM; `CC1(C)N=[N+]([O-])C1(C)C`: more than 100 µM.
`COc1ccc2cc(NC(=O)N/N=C\c3ccc([N+](=O)[O-])cc3)ccc2c1` gave a TGI of 65.4 µM.
On the same count and under the same terms, the same measure for `COC(=O)c1c(C)cccc1C1CN=NC12Cc1ccc(C)cc1C2=O` (stereo not given): more than 100 µM.
In turn, `COC(=O)C1SC(SC)=NC12c1ccccc1Nc1ccccc12` (stereo not given) gave a TGI of more than 100 µM.
The same measure, in the same setting: the same measure for `CCOC(=O)CSc1c(C(=O)OCC)c(=O)n(-c2ccccc2)c(=S)n1-c1ccccc1`: more than 100 µM; for `COC(CCC[N+](C)(C)C)CC[N+](C)(C)C` (stereo not given): more than 100 µM.
The same measure, in the same setting: next, `Cc1ccccc1C(=O)N1CCc2c([nH]c3ccccc23)C1`: 61.9 µM.
`NC(=O)NCCCC(NC(=O)OCCCCn1ccc(=O)[nH]c1=O)C(=O)O` (stereo not given): the TGI is more than 100 µM.
Same read-out and setting: the same measure for `CCOC(=O)C(SCCO)C(C(=O)OCC)n1cnc2c(=O)[nH]c(NC(C)=O)nc21` (stereo not given): more than 100 µM; for `c1ccc(-c2nc(-c3ccccc3SSc3ccccc3-c3nc(-c4ccccc4)nn3-c3ccccc3)n(-c3ccccc3)n2)cc1`: more than 100 µM; for `Cc1ccc([N+](=O)[O-])cc1NC1=NCCO1`: more than 100 µM.
For `CC(C)(C)N1CSC(=S)N(Cc2ccco2)C1`, the TGI turned out to be 26.4 µM.
Same read-out and setting: next, `O=c1c2cc([N+](=O)[O-])cnc2sn1-c1ccc([N+](=O)[O-])cc1`: more than 100 µM; `Cc1ccc(C(=O)O)cc1S(=O)(=O)Nn1cnc2ccc(S(=O)(=O)Nc3ccccc3C(=O)O)cc2c1=O`: more than 100 µM; `S=C1Nc2ccccc2SC1c1ccccc1` (stereo not given): 71.3 µM.
On the same count and under the same terms, the same measure for `N#CC1(C#N)N[C@@H](c2ccsc2)[C@H]2C(=O)N(c3ccccc3)C(=O)[C@H]21`: more than 100 µM.

In a further assay the test system is OVCAR-8 ovarian. Briefly: NCI tumour cell line growth inhibition, 48 h.
Turning to `CCCCCCc1cc2cc(-c3csc(CC#N)n3)c(=O)oc2cc1O`, the TGI is more than 100 µM.
Consider `CN1CCN(C2=NCCO2)CC1`, for which the TGI was more than 100 µM.
Still for that read-out and setting: next, `COc1ccc(-c2cc(O)c3nc4ccccc4n3c2)cc1`: more than 100 µM.
Same read-out and setting: next, `O=C1CSC(c2ccc(Cl)cc2)N1c1ccc(Oc2ccc(Cl)cc2)c(Cl)c1` (stereo not given): 35.4 µM.
On the same count and under the same terms, the same measure for `Nn1c(-c2ccccc2)nn(C(=O)c2ccccc2)c1=O`: more than 100 µM; for `CN1CCc2cc(N)cc3c2C1Cc1ccc(O)c(O)c1-3` (stereo not given): more than 100 µM.
On to `CC1(C)N=[N+]([O-])C1(C)C`, for which the TGI is more than 100 µM.
The same measure, in the same setting: next, `COc1ccc2cc(NC(=O)N/N=C\c3ccc([N+](=O)[O-])cc3)ccc2c1`: 87.3 µM.
The same measure, in the same setting: next, `COC(=O)c1c(C)cccc1C1CN=NC12Cc1ccc(C)cc1C2=O` (stereo not given): more than 100 µM.
The same measure, in the same setting: the same measure for `COC(=O)C1SC(SC)=NC12c1ccccc1Nc1ccccc12` (stereo not given): more than 100 µM; for `CCOC(=O)CSc1c(C(=O)OCC)c(=O)n(-c2ccccc2)c(=S)n1-c1ccccc1`: more than 100 µM; for `COC(CCC[N+](C)(C)C)CC[N+](C)(C)C` (stereo not given): more than 100 µM.
For the compound `Cc1ccccc1C(=O)N1CCc2c([nH]c3ccccc23)C1`, the TGI was more than 100 µM.
In turn, `NC(=O)NCCCC(NC(=O)OCCCCn1ccc(=O)[nH]c1=O)C(=O)O` (stereo not given) displayed a TGI of more than 100 µM.
On the same count and under the same terms, next, `CCOC(=O)C(SCCO)C(C(=O)OCC)n1cnc2c(=O)[nH]c(NC(C)=O)nc21` (stereo not given): more than 100 µM.
Still for that read-out and setting: the same measure for `c1ccc(-c2nc(-c3ccccc3SSc3ccccc3-c3nc(-c4ccccc4)nn3-c3ccccc3)n(-c3ccccc3)n2)cc1`: more than 100 µM.
On the same count and under the same terms, next, `Cc1ccc([N+](=O)[O-])cc1NC1=NCCO1`: more than 100 µM; `CC(C)(C)N1CSC(=S)N(Cc2ccco2)C1`: 5.63 µM.
`O=c1c2cc([N+](=O)[O-])cnc2sn1-c1ccc([N+](=O)[O-])cc1` gave a TGI of more than 100 µM.
Still for that read-out and setting: next, `Cc1ccc(C(=O)O)cc1S(=O)(=O)Nn1cnc2ccc(S(=O)(=O)Nc3ccccc3C(=O)O)cc2c1=O`: more than 100 µM; `S=C1Nc2ccccc2SC1c1ccccc1` (stereo not given): more than 100 µM; `N#CC1(C#N)N[C@@H](c2ccsc2)[C@H]2C(=O)N(c3ccccc3)C(=O)[C@H]21`: more than 100 µM.

A further assay concerns ACHN renal. In words: NCI tumour cell line growth inhibition, 48 h.
Regarding `CCCCCCc1cc2cc(-c3csc(CC#N)n3)c(=O)oc2cc1O`, the TGI is more than 100 µM.
On the same count and under the same terms, the same measure for `CN1CCN(C2=NCCO2)CC1`: more than 100 µM; for `O=C1CSC(c2ccc(Cl)cc2)N1c1ccc(Oc2ccc(Cl)cc2)c(Cl)c1` (stereo not given): 31.2 µM.
Still for that read-out and setting: the same measure for `Nn1c(-c2ccccc2)nn(C(=O)c2ccccc2)c1=O`: more than 100 µM.
The same measure, in the same setting: next, `CN1CCc2cc(N)cc3c2C1Cc1ccc(O)c(O)c1-3` (stereo not given): 58.4 µM.
`COc1ccc2cc(NC(=O)N/N=C\c3ccc([N+](=O)[O-])cc3)ccc2c1` gave a TGI of more than 100 µM.
`COC(=O)c1c(C)cccc1C1CN=NC12Cc1ccc(C)cc1C2=O` (stereo not given) had a TGI of more than 100 µM.
The same measure, in the same setting: the same measure for `COC(=O)C1SC(SC)=NC12c1ccccc1Nc1ccccc12` (stereo not given): more than 100 µM; for `CCOC(=O)CSc1c(C(=O)OCC)c(=O)n(-c2ccccc2)c(=S)n1-c1ccccc1`: more than 100 µM.
The same measure, in the same setting: the same measure for `COC(CCC[N+](C)(C)C)CC[N+](C)(C)C` (stereo not given): more than 100 µM; for `Cc1ccccc1C(=O)N1CCc2c([nH]c3ccccc23)C1`: more than 100 µM; for `NC(=O)NCCCC(NC(=O)OCCCCn1ccc(=O)[nH]c1=O)C(=O)O` (stereo not given): more than 100 µM.
The same measure, in the same setting: next, `CCOC(=O)C(SCCO)C(C(=O)OCC)n1cnc2c(=O)[nH]c(NC(C)=O)nc21` (stereo not given): more than 100 µM; `c1ccc(-c2nc(-c3ccccc3SSc3ccccc3-c3nc(-c4ccccc4)nn3-c3ccccc3)n(-c3ccccc3)n2)cc1`: more than 100 µM; `Cc1ccc([N+](=O)[O-])cc1NC1=NCCO1`: more than 100 µM.
In turn, `CC(C)(C)N1CSC(=S)N(Cc2ccco2)C1` registered a TGI of 13.7 µM.
`O=c1c2cc([N+](=O)[O-])cnc2sn1-c1ccc([N+](=O)[O-])cc1` returned a TGI of more than 100 µM.
Turning to `Cc1ccc(C(=O)O)cc1S(=O)(=O)Nn1cnc2ccc(S(=O)(=O)Nc3ccccc3C(=O)O)cc2c1=O`, the TGI was more than 100 µM.
Turning to `S=C1Nc2ccccc2SC1c1ccccc1` (stereo not given), the TGI is more than 100 µM.
On the same count and under the same terms, next, `N#CC1(C#N)N[C@@H](c2ccsc2)[C@H]2C(=O)N(c3ccccc3)C(=O)[C@H]21`: more than 100 µM.

The subject of another assay is HL-60(TB) leukemia. Briefly: NCI tumour cell line growth inhibition, 48 h.
`CCCCCCc1cc2cc(-c3csc(CC#N)n3)c(=O)oc2cc1O` gave a TGI of more than 66.9 µM.
On the same count and under the same terms, the same measure for `CN1CCN(C2=NCCO2)CC1`: more than 100 µM.
The same measure, in the same setting: the same measure for `COc1ccc(-c2cc(O)c3nc4ccccc4n3c2)cc1`: more than 100 µM.
Same read-out and setting: next, `O=C1CSC(c2ccc(Cl)cc2)N1c1ccc(Oc2ccc(Cl)cc2)c(Cl)c1` (stereo not given): 39 µM; `Nn1c(-c2ccccc2)nn(C(=O)c2ccccc2)c1=O`: more than 100 µM.
In turn, `CN1CCc2cc(N)cc3c2C1Cc1ccc(O)c(O)c1-3` (stereo not given) came in with a TGI of 98.7 µM.
Same read-out and setting: the same measure for `CC1(C)N=[N+]([O-])C1(C)C`: more than 100 µM; for `COc1ccc2cc(NC(=O)N/N=C\c3ccc([N+](=O)[O-])cc3)ccc2c1`: more than 100 µM.
For the compound `COC(=O)c1c(C)cccc1C1CN=NC12Cc1ccc(C)cc1C2=O` (stereo not given), the TGI was found to be 47.1 µM.
The compound `COC(=O)C1SC(SC)=NC12c1ccccc1Nc1ccccc12` (stereo not given) showed a TGI of 87.9 µM.
